Laboratory results reported in US11147778B2, “Siderophore-polymer conjugates for increasing bacterial sensitivity to antibiotics” (Wisconsin Alumni Research Foundation, priority 2016, dated 2021).
Like-named read-outs stand apart in the source and are kept apart here.

Assays:
[1] = system: E. coli ATCC 25922; experiment: Broth microdilution MIC / FICI; format: cell-based; conditions: Escherichia coli, ATCC25922
Protocol: (§1) Antimicrobial efficacy was assessed by the broth microdilution assay in accordance with NCCLS guidelines (Coyle, Marie B. Manual of antimicrobial susceptibility testing. American Society for Microbiology, 2005). Organisms were grown overnight on non-selective MHA medium in order to obtain single colonies. Three to five morphologically distinct colonies were touched with a sterile pipet tip and transferred to a culture tube containing MHB (4 mL), and the broth culture was incubated at 37° C. until its turbidity matched a 0.5 McFarland Standard. The inoculum was then diluted 1:20 in sterile water, followed by a 1:10 dilution when inoculating wells of a 96-well plate. […] For combinations, the fractional inhibitory concentration index (FICI) was calculated using the following equation: [formula]

[2] = system: P. aeruginosa ATCC 27853; experiment: Broth microdilution MIC / FICI; format: cell-based; conditions: Pseudomonas aeruginosa, ATCC27853
Protocol: as §1

[3] = system: P. aeruginosa PAO1; experiment: Broth microdilution MIC / FICI; format: cell-based; conditions: Pseudomonas aeruginosa
Protocol: as §1

[4] = system: P. aeruginosa MDR 24530; experiment: Broth microdilution MIC / FICI; format: cell-based; conditions: Pseudomonas aeruginosa, MDR24530
Protocol: as §1, with “[formula]” left out

[5] = system: P. aeruginosa MDR 2638; experiment: Broth microdilution MIC / FICI; format: cell-based; conditions: Pseudomonas aeruginosa, MDR2638
Protocol: as §1, with “[formula]” left out

[6] = system: P. aeruginosa MDR 3072; experiment: Broth microdilution MIC / FICI; format: cell-based; conditions: Pseudomonas aeruginosa, MDR3072
Protocol: as §1, with “[formula]” left out

[7] = system: P. aeruginosa ATCC 27853; experiment: Disk diffusion, zones of inhibition; format: cell-based, Pseudomonas aeruginosa; conditions: for zone of inhibition, A: same disks and plates
Protocol: (§2) Single colonies were grown in MHB to match a 0.5 McFarland standard. A sterile cotton swab was dipped into the various MDR strain inoculums and spread evenly over the surface of the agar plates. Purchased antibiotic-containing disks at fixed concentrations (Table 4) were placed on the surface of each plate and incubated overnight at 37° C. Zones of inhibition were measured the following morning. Measurements included the diameter (d) of the antibiotic disk (6 mm) and are reported in terms of diameters and areas. […] Typically for diameters, R<10, I 11-15, and S>15 where R=resistance, I=intermediate resistance, and S=susceptible.

[8] = system: P. aeruginosa MDR strain 24530; experiment: Disk diffusion, zones of inhibition; format: cell-based, Pseudomonas aeruginosa
Protocol: as §2

[9] = system: P. aeruginosa MDR strain 3072; experiment: Disk diffusion, zones of inhibition; format: cell-based, Pseudomonas aeruginosa
Protocol: as §2

[10] = system: P. aeruginosa PAO1; experiment: Disk diffusion, zones of inhibition; format: cell-based, Pseudomonas aeruginosa
Protocol: as §2

[11] = system: P. aeruginosa reference strains (ATCC 27853 and PAO1); experiment: Dose response of growth (OD600) to F127-(DFO-Ga)2/ERY; format: cell-based, Pseudomonas aeruginosa; conditions: 50 μg/mL ERY alone
[12] = system: MDR strains (2638, 3072, and 24530) of P. aeruginosa; experiment: Growth inhibition by F127-(DFO-Ga)2/ERY, MDR strains; format: cell-based, Pseudomonas aeruginosa; conditions: 244 μM F127-(DFO-Ga)2 and/or 50 μg/mL ERY
Protocol: At time points of 0, 1, 2, and 4 hours, a small aliquot was removed from the broth culture, logarithmically diluted in M9 salts, and then spread onto cation-adjusted Mueller-Hinton agar plates. After overnight incubation at 37° C., colonies were counted and the number of CFU/mL was calculated.

[13] = E. coli ATCC 25922, Example 9, read-out: MIC (Table 7, agent alone)
[14] = E. coli ATCC 25922, antibiotic alone, Table 3, read-out: MIC
[15] = P. aeruginosa ATCC 27853, Example 9, read-out: MIC (Table 7, agent alone)
[16] = P. aeruginosa PAO1, Example 9, read-out: MIC (Table 7, agent alone)
[17] = PAO1, antibiotic alone, Table 3, read-out: MIC
[18] = MDR 24530, antibiotic alone, read-out: MIC
[19] = MDR 2638, antibiotic alone, read-out: MIC
[20] = MDR 3072, antibiotic alone, read-out: MIC
[21] = Pseudomonas aeruginosa, ATCC27853, 27853, disks NVB 30 μg, ERY 15 μg, RIF 5 μg, VAN 30 μg, MHA with or without 256 μM DG-F125, includes 6 mm disk, read-out: zone of inhibition, d
[22] = Pseudomonas aeruginosa, 24530, disks NVB 30 μg, ERY 15 μg, RIF 5 μg, VAN 30 μg, MHA with or without 256 μM DG-F125, includes 6 mm disk, read-out: zone of inhibition, d
[23] = Pseudomonas aeruginosa, 3072, disks NVB 30 μg, ERY 15 μg, RIF 5 μg, VAN 30 μg, MHA with or without 256 μM DG-F125, includes 6 mm disk, read-out: zone of inhibition, d
[24] = Pseudomonas aeruginosa, PAO1, disks NVB 30 μg, ERY 15 μg, RIF 5 μg, VAN 30 μg, MHA with or without 256 μM DG-F125, includes 6 mm disk, read-out: zone of inhibition, d
[25] = Pseudomonas aeruginosa, read-out: zone of inhibition, d

Structure (SMILES)	MIC [1, 13]	MIC [1, 14]	MIC [2]	MIC [2, 15]	MIC [3, 16]	MIC [3, 17]	MIC [4, 18]	MIC [5, 19]	MIC [6, 20]	zone of inhibition, A [7]; 27853	zone of inhibition, A ([8]; 24530, same disks and plates)	zone of inhibition, A ([9]; 3072, same disks and plates)	zone of inhibition, A ([10]; PAO1, same disks and plates)	MIC ([3]; PAO1)	MIC [4]	MIC [5]	MIC [6]	also measured
CO[C@@H]1[C@@H](OC(N)=O)[C@@H](O)[C@H](Oc2ccc3c(O)c(NC(=O)c4ccc(O)c(CC=C(C)C)c4)c(=O)oc3c2C)OC1(C)C [NVB, novobiocin sodium]	48 µg/mL	32 µg/mL	128 µg/mL	> 128 µg/mL	> 128 µg/mL	> 512 µg/mL	> 512 µg/mL	> 512 µg/mL	> 512 µg/mL	44 mm^2	0 mm^2	0 mm^2	0 mm^2	–	–	–	–	zone of inhibition at 30 µg/disc [7, 21]: 7.5 mm; zone of inhibition at 30 µg/disc [8, 22]: 0 mm; zone of inhibition at 30 µg/disc [9, 23]: 0 mm; zone of inhibition at 30 µg/disc [10, 24]: 0 mm
CO[C@H]1/C=C/O[C@@]2(C)Oc3c(C)c(O)c4c(O)c(c(/C=N/N5CCN(C)CC5)c(O)c4c3C2=O)NC(=O)/C(C)=C\C=C\[C@H](C)[C@H](O)[C@@H](C)[C@@H](O)[C@@H](C)[C@H](OC(C)=O)[C@@H]1C [RIF, rifampicin]	–	4 µg/mL	–	–	–	16 µg/mL	16 µg/mL	8 µg/mL	16 µg/mL	0 mm^2	0 mm^2	0 mm^2	33 mm^2	–	–	–	–	MIC ([2]; ATCC 27853, antibiotic alone, Table 3, read-out: MIC): 16 µg/mL; zone of inhibition at 5 µg/disc [7, 21]: 0 mm; zone of inhibition at 5 µg/disc [8, 22]: 0 mm; zone of inhibition at 5 µg/disc [9, 23]: 0 mm; zone of inhibition at 5 µg/disc [10, 24]: 6.5 mm
CN[C@H](CC(C)C)C(=O)N[C@H]1C(=O)N[C@@H](CC(N)=O)C(=O)N[C@H]2C(=O)N[C@H]3C(=O)N[C@H](C(=O)N[C@H](C(=O)O)c4cc(O)cc(O)c4-c4cc3ccc4O)[C@H](O)c3ccc(c(Cl)c3)Oc3cc2cc(c3O[C@@H]2O[C@H](CO)[C@@H](O)[C@H](O)[C@H]2O[C@H]2C[C@](C)(N)[C@H](O)[C@H](C)O2)Oc2ccc(cc2Cl)[C@H]1O [VAN, vancomycin]	–	–	> 1020 µg/mL	–	–	–	–	–	–	0 mm^2	0 mm^2	0 mm^2	0 mm^2	> 1020 µg/mL	1020 µg/mL	512 µg/mL	> 1020 µg/mL	MIC [1]: 128 µg/mL; zone of inhibition at 30 µg/disc ([7]; Pseudomonas aeruginosa, ATCC27853, read-out: zone of inhibition, d): 0 mm; zone of inhibition at 30 µg/disc [8, 25]: 0 mm; zone of inhibition at 30 µg/disc [9, 25]: 0 mm; A of region where some growth is still visible (in parentheses) ([10]; PAO1, same disks and plates): 64 mm^2; d of region where some growth is still visible (in parentheses) ([10]; PAO1, same disks and plates): 9 mm; zone of inhibition at 30 µg/disc ([10]; Pseudomonas aeruginosa, PAO1, read-out: zone of inhibition, d): 0 mm
CC[C@H]1OC(=O)[C@H](C)[C@@H](O[C@H]2C[C@@](C)(OC)[C@@H](O)[C@H](C)O2)[C@H](C)[C@@H](O[C@@H]2O[C@H](C)C[C@H](N(C)C)[C@H]2O)[C@](C)(O)C[C@@H](C)C(=O)[C@H](C)[C@@H](O)[C@]1(C)O [ERY, erythromycin]	32 µg/mL	32 µg/mL	256 µg/mL	> 128 µg/mL	> 128 µg/mL	–	–	–	–	95 mm^2	0 mm^2	0 mm^2	64 mm^2	256 µg/mL	512 µg/mL	512 µg/mL	512 µg/mL	reduction in the OD600 compared to the positive control [11]: approximately 40%; bacterial growth [12]: similarly ineffective; zone of inhibition at 15 µg/disc [7, 21]: 11 mm; A of region where some growth is still visible (in parentheses) ([8]; 24530, same disks and plates): (133) mm^2; d of region where some growth is still visible (in parentheses) ([8]; 24530, same disks and plates): (13) mm; zone of inhibition at 15 µg/disc [8, 22]: 0 mm; A of region where some growth is still visible (in parentheses) ([9]; 3072, same disks and plates): (283) mm^2; d of region where some growth is still visible (in parentheses) ([9]; 3072, same disks and plates): (19) mm; zone of inhibition at 15 µg/disc [9, 23]: 0 mm; zone of inhibition at 15 µg/disc [10, 24]: 9 mm
